This note sets out measurements from paper PMC12239085, “Silver(I) Ions Bridging Oxadiazole-2-thione Derivatives with Mitochondriotropic Agents: A Promising Strategy for Potent Anticancer Chemotherapy” (Inorganic Chemistry, 2025).

Several values for one entry are separate records, joined by “and”; a condition that tells them apart may be missing. Equal entries are not always repeated. Where two headings read alike, the source gives them in different places.

The subject of series [1] is nontumorigenic human breast epithelial cell line (MCF-10A). As to the kind of experiment: SRB toxicity assay, MCF-10A. The class given is cell-based. Particulars: 48 h incubation. As for the experimental part:
The toxicity of 1–5 was also evaluated against normal human fetal lung fibroblast (MRC-5) cells. Their IC50 values lie from 2.7 to 4.1 μM (Table ). The toxicity of these compounds was also evaluated against the nontumorigenic human breast epithelial cell line (MCF-10A), which is widely used as a model for normal human breast cells. They closely resemble normal human mammary epithelial cells in structure and are regulated by hormones and growth factors.
(§1) Cytotoxicity was evaluated using the SRB colorimetric assay at λ = 568 nm, with cell survival percentages calculated relative to the untreated control cells. Detailed information on the SRB assay procedure can be found in the previous publication. ,–
In general terms: Sulforhodamine B stains cellular protein and so reports cell mass.

Another series has as its system MCF-7 cells. Kind of series: Cell cycle arrest, flow cytometry. The class given is cell-based, human. Conditions: for cell population in sub-G1 phase / cell population in G0/G1 phase / cell population in S phase: MCF-7, IC50 values, 48 h; for cell population in sub-G1 phase: untreated 5.1%; for cell population in G0/G1 phase: untreated 38.8%; for cell population in S phase: untreated 9.4%. As for the experimental part:
The MCF-7 cells were seeded into a 24-well plate (70,000 cells per well) and cultured at 37 °C for 24 h. […] For each sample, 10,000 events were recorded. The resulting DNA histograms were drawn and quantified using the FlowJo software (version FlowJo X 10.0.7r2). This assay was performed as reported previously. ,–

For series [2], the system named is MDA-MB-231 human breast adenocarcinoma cells (hormone-independent). Kind of series: SRB antiproliferative assay, MDA-MB-231. Format: cell-based. Conditions: 48 h incubation. As for the experimental part:
Stock solutions of compounds 1a–5a and 1–5 (0.01 M) in DMSO were freshly prepared and subsequently diluted with cell culture media to appropriate concentrations for various biological experiments. These included the assessment of cell viability using the SRB assay, micronucleus testing, cell morphology studies, cell cycle arrest, AO/EB staining, and mitochondrial membrane permeabilization tests. For CT-DNA binding studies, experiments were conducted in DMSO/buffer solutions. All biological experiments were performed in triplicate or more.
Stock solutions of 1a–5a and 1–5 (0.01 M) were dissolved in DMSO and subsequently diluted with cell culture medium to the desired concentrations (0.5–30 μM). MCF-7, MDA MB-231, and MRC-5 cells were plated in 96-well flat-bottom microplates at various densities: 6000, 8000, and 2000 cells per well, respectively. The cells were incubated for 24 h at 37 °C and then exposed to 1a–5a and 1–5 for 48 h. ,–
as §1

The subject of series [3] is calf thymus (CT)-DNA. As to the kind of experiment: CT-DNA binding, UV absorption spectroscopy. Particulars: for binding constant K b toward CT-DNA: UV absorbance at 300–310 nm, CT-DNA 10–100 μΜ; for percentage of hyperchromism: UV spectra of CT-DNA with gradual additions of complex. As for the experimental part: In order to elucidate the mechanism of action of compounds 1–5 against MCF-7 cells, their interaction with CT-DNA was investigated using UV absorption and fluorescence spectroscopy. The UV absorption spectra of compounds 1–5 were recorded both in the presence and absence of CT-DNA (Figure S27). […] The calculated K b values for 1–5 are (10.5 ± 1.8) × 10^4 (1), (6.3 ± 0.6) × 10^4 (2), (11.3 ± 1.6) × 10^4 (3), (7.5 ± 1.0) × 10^4 (4) and (10.2 ± 1.1) × 10^4 (5) M^–1, respectively.
For the experiments of titration, UV spectra of CT-DNA in buffer solution in the absence and presence of 1–5 at r values of 0–0.13 (r = [complex]/[DNA], [DNA] = 10^–4 M) were recorded. ,− In order to determine the constant K b value, UV spectra of 1–5 in the absence and presence of CT-DNA at r values 1–0.1 ([complex] = 10 μM, [CT DNA] = 10–100 μM) were investigated.^24,26–30 The K b value is obtained from the ratio of the slope to the y-intercept in plots [DNA]/(εa–εf) versus [DNA] (e a = A obsd/[compound], e f = the extinction coefficient for the free compound). ,−

A further series relates to MRC-5 cells. As to the kind of experiment: In vitro micronucleus (MN) assay. Format: cell-based, human. Conditions: for Percentage of MN: IC50 values, control 2.9 ± 0.2. As for the experimental part: MRC-5 cells were seeded at a density of 2 × 10^4 cells/well onto glass coverslips, which were placed in six-well plates containing 3 mL of cell culture medium and incubated for 24 h. […] After exposure, the coverslips were washed three times with PBS and treated with a hypotonic solution (75 mM KCl) for 10 min at room temperature. The hypotonized cells were fixed with at least three changes of a 1/3 acetic acid/methanol solution. Following fixation, the coverslips were washed with cold methanol containing 1% acetic acid. Acridine orange staining (50 μg/mL) was applied for 15 min at 37 °C, after which the coverslips were rinsed three times with PBS to remove any excess stain. The number of micronucleated cells per 1000 cells was then counted. ,– ,

The test system of series [4] is calf thymus (CT)-DNA. As to the kind of experiment: CT-DNA-EB fluorescence displacement. The class given is binding. Conditions: for quenching of fluorescence intensity of EB-DNA at 588 nm: EB 2.3 μM, CT-DNA 26 μM, complex 0–600 μM; for apparent binding constant K app: EB displacement. As for the experimental part: The DNA-complex binding properties can also be studied by fluorescent spectroscopy can also be studied by fluorescent spectroscopy. ,– EB emits intense fluorescence in the presence of DNA due to its strong intercalation between adjacent DNA base pairs. As EB binds to DNA […], its displacement by a compound could indicate either intercalative binding or minor groove interaction, among other possibilities. ,– The emission spectra of the CT-DNA-EB complex were recorded in both the absence and presence of compounds 1–5 (Figure S29). The fluorescence intensity at λmax ^em = 588 nm was quenched by 60.2 (1). 58.5 (2), 62.0 (3), 61.9 (4) and 61.6 (5) %, for 1–5 respectively, compared to the initial fluorescence intensity of the EB-DNA solution.
The fluorescence spectroscopy method using EB was employed to determine the relative DNA binding properties of complexes 1–5 into CT-DNA. The emission spectra at 588 nm of EB (2.3 μM) solutions which contain CT-DNA (26 μM) in the absence or presence of various concentrations of complexes 1–5 (0–600 μM) were recorded upon their excitation at 527 nm. ,− The apparent binding constant (K app) was calculated using the equation: KEB*[EB]=Kapp*[DNA binder] where [DNA binder] is the concentration of the complex at a 50% reduction of the fluorescence, K EB= 10^7 M^–1, and [EB] = 2.3 μM. ,−
The concentration of the drug required to achieve a 50% reduction in fluorescence is determined from the plot of I o/I versus the concentration of the complex [DNA binder], Io/I=1+KSV*[DNA binder] where I o and I represent the fluorescence intensities of CT-DNA in the absence and presence of complexes 1–5, respectively. K SV is the Stern–Volmer dynamic quenching constant and [DNA binder] is the total concentration of the quencher (complexes 1–5). ,−

Take `Fc1ccccc1-c1nnc([S][Ag]([PH](c2ccccc2)(c2ccccc2)c2ccccc2)([PH](c2ccccc2)(c2ccccc2)c2ccccc2)[PH](c2ccccc2)(c2ccccc2)c2ccccc2)o1` [compound 2]: inhibition in series [1] was half-maximal at 13.9 µM (IC50). In the series on MCF-7 cells, the “Relative rate of MCF-7 cells in sub-G1 phase compared to untreated cells” value (“Relative rate of MCF-7 cells” for short) is 1.7, the “cell population in sub-G1 phase” value was 8.9% and the “cell population in G0/G1 phase” value was determined as 76.9%. For the same compound, the concentration for half-maximal inhibition (IC50) – broadly, the point on the concentration scale where inhibition reaches its midpoint – in series [2] is 3.9 ± 0.14 µM. In the series on calf thymus (CT)-DNA [3], the “binding constant K b toward CT-DNA” value is recorded as 6.3 ± 0.6 × 10^4 M^–1 and the percentage of hyperchromism was 7.6%. Also, the “Relative ratio of MN in respect to untreated cells” value (shortened to “Relative ratio of MN”) with MRC-5 cells is 1.24 fold. Moreover, in the series on MRC-5 cells (48 h), the “Relative ratio of MN” value was 1.2 and 1.24; the “Percentage of MN” value came out at 3.6 ± 0.5%. In the series on calf thymus (CT)-DNA [4], the “quenching of fluorescence intensity of EB-DNA at 588 nm” value (“quenching” below) was 58.5% and the “apparent binding constant K app” value was 6.7 × 10^4 M^–1.
Turning to `Fc1ccc(-c2nnc([S][Ag]([PH](c3ccccc3)(c3ccccc3)c3ccccc3)([PH](c3ccccc3)(c3ccccc3)c3ccccc3)[PH](c3ccccc3)(c3ccccc3)c3ccccc3)o2)cc1` [compound 3], the IC50 in series [1] stood at 10.9 µM. In addition, in the series with MCF-7 cells, the “Relative rate of MCF-7 cells” value came out at 2.5, the “cell population in sub-G1 phase” value is on record as 12.8% and the “cell population in G0/G1 phase” value was found to be 72.0%. In series [2], this compound showed an IC50 of 2.52 ± 0.07 µM. Further, in the series on calf thymus (CT)-DNA [3], the “binding constant K b toward CT-DNA” value was 11.3 ± 1.6 × 10^4 M^–1 and 11.3 × 10^4 M^–1; the percentage of hyperchromism worked out at 28.0%. The “Relative ratio of MN” value with MRC-5 cells amounted to 1.31 fold. In the series on MRC-5 cells (48 h), the “Relative ratio of MN” value is 1.3 and 1.31; the “Percentage of MN” value is reported as 3.8 ± 0.2%. For the same compound, in the series on calf thymus (CT)-DNA [4], the “quenching” value was 62.0% and the “apparent binding constant K app” value was 7.0 × 10^4 M^–1.
`Clc1ccccc1-c1nnc([S][Ag]([PH](c2ccccc2)(c2ccccc2)c2ccccc2)([PH](c2ccccc2)(c2ccccc2)c2ccccc2)[PH](c2ccccc2)(c2ccccc2)c2ccccc2)o1` [compound 4] registered an IC50 in series [1] of 16 µM. Also, in the series on MCF-7 cells, the “Relative rate of MCF-7 cells” value is 2.6; the “fold higher increase in MCF-7 sub-G1 population compared to the other compounds and cisplatin” value is given as 3 fold; the “cell population in S phase” value is given as 26.5%. In series [2], this compound registered an IC50 of 4.27 ± 0.15 µM. In the series on calf thymus (CT)-DNA [3], the “binding constant K b toward CT-DNA” value is on record as 7.5 ± 1.0 × 10^4 M^–1 and the percentage of hyperchromism is recorded as 8.5%. The “Relative ratio of MN” value in the series on MRC-5 cells amounted to 1.69 fold. Moreover, in the series with MRC-5 cells (48 h), the “Relative ratio of MN” value was 1.7 and 1.69; the “Percentage of MN” value is recorded as 4.9 ± 0.5%. Further, in the series with calf thymus (CT)-DNA [4], the “quenching” value is 61.9% and the “apparent binding constant K app” value is reported as 6.9 × 10^4 M^–1.
With `c1ccc(-c2nnc([S][Ag]([PH](c3ccccc3)(c3ccccc3)c3ccccc3)([PH](c3ccccc3)(c3ccccc3)c3ccccc3)[PH](c3ccccc3)(c3ccccc3)c3ccccc3)o2)cc1` [compound 1], the IC50 in series [1] turned out to be 10.6 µM. In the series on MCF-7 cells, the “Relative rate of MCF-7 cells” value was determined as 2.8, the “cell population in sub-G1 phase” value is listed as 14.5% and the “cell population in S phase” value is reported as 15.4%. The compound further had an IC50 in series [2] of 4.09 ± 0.17 µM. In the series on calf thymus (CT)-DNA [3], the “binding constant K b toward CT-DNA” value is 10.5 ± 1.8 × 10^4 M^–1 and the percentage of hyperchromism is 4.0%. The “Relative ratio of MN” value in the series with MRC-5 cells stood at 1.38 fold. In the series with MRC-5 cells (48 h), the “Relative ratio of MN” value is 1.4 and 1.38; the “Percentage of MN” value turned out to be 4.0 ± 0.6%. In the series with calf thymus (CT)-DNA [4], the “quenching” value was 60.2% and the “apparent binding constant K app” value is on record as 6.3 × 10^4 M^–1.
In series [1], `Clc1cccc(-c2nnc([S][Ag]([PH](c3ccccc3)(c3ccccc3)c3ccccc3)([PH](c3ccccc3)(c3ccccc3)c3ccccc3)[PH](c3ccccc3)(c3ccccc3)c3ccccc3)o2)c1` [compound 5] displayed an IC50 of 16.1 µM. Moreover, in the series with MCF-7 cells, the “Relative rate of MCF-7 cells” value stood at 8.1, the “cell population in sub-G1 phase” value amounted to 41.1% and the “cell population in S phase” value is 48.3%. Moreover, it took 3.55 ± 0.19 µM to reach half-maximal inhibition in series [2] (IC50). Further, in the series on calf thymus (CT)-DNA [3], the “binding constant K b toward CT-DNA” value is 10.2 ± 1.1 × 10^4 M^–1 and 10.2 × 10^4 M^–1; the percentage of hyperchromism is 1.2%. Further, in the series with MRC-5 cells (48 h), the “Relative ratio of MN” value is 2.3 and 2.34; the “Percentage of MN” value came to 6.8 ± 1.5%. Further, in the series with calf thymus (CT)-DNA [4], the “quenching” value is reported as 61.6% and the “apparent binding constant K app” value is 6.5 × 10^4 M^–1.
